Patent publication US20190119284A1, “ErbB Inhibitors and Uses Thereof” (The Regents of the University of California, priority 2016, published 2019)
Where two headings read alike, the source gives them in different places.

Experiments:
Assay type in all cases: cell-based
HER2+/2VE Ba/F3 line = assay: Ba/F3 proliferation assay, HER2+/2VE; settings: Tables 7 and 8
Description: (§1) Proliferation Assays. For adherent cell lines, cells were plated onto opaque white 96 well plates (Greiner cat #655083) and allowed to adhere overnight. The following day media was changed to fresh media that contained either DMSO or the indicated concentration of drug plus NRG (50 ng/mL final concentration) as indicated. Plates were incubated at 37° C. for 72 h and proliferation was read out using Cell Titer Glo (Promega) according to the manufacturer's protocol. For Ba/F3 cell proliferation, cells, drug dilution, and any necessary growth factors (10 ng/mL IL-3 or 6.25 ng/mL NRG) were combined in a well of a 96 well plate. Plates were incubated at 37° C. for 48 h and proliferation was read out using Cell Titer Glo according to the manufacturer's protocol. For all normalized assays, proliferation was normalized to the DMSO control condition. All graphs were plotted in GraphPad Prism 6 and fit with a non-linear regression of the log(inhibitor) vs response with a variable slope where shown. All graphs are averages (+/−standard deviation) of biological triplicates each performed in technical triplicate unless otherwise noted. If only one biological replicate was performed standard deviations were derived from the technical replicates.

[1] = tested on: parental Ba/F3 cells + IL-3; assay: Ba/F3 proliferation assay, Parental + IL-3; settings: Tables 7 and 8, read-out: Ba/F3 line IC50, Parental + IL-3
Description: To validate the screen and test the effectiveness of counter-screening with either the same 2YF/3wt Ba/F3 cell line or the parental Ba/F3's in the presence of IL-3 to remove cytotoxic primary hits, we first tested a panel of kinase inhibitors with established mechanisms of action.
as §1

[2] = target: 2YF/3wt + NRG Ba/F3 cells (HER2YF/HER3wt) (Homo sapiens, UniProt P04626, Y1005F/Y1023F/Y1112F/Y1127F/Y1139F/Y1196F/Y1221F/Y1222F/Y1248F, cells depend on it); assay: Ba/F3 proliferation assay, 2YF/3wt + NRG; settings: Tables 7 and 8; read-out: Ba/F3 line IC50, HER2YF/HER3 + NRG
2YF/3wt + NRG Ba/F3 cells (HER2YF/HER3wt), sequence (P04626 whole entry Y1005F/Y1023F/Y1112F/Y1127F/Y1139F/Y1196F/Y1221F/Y1222F/Y1248F): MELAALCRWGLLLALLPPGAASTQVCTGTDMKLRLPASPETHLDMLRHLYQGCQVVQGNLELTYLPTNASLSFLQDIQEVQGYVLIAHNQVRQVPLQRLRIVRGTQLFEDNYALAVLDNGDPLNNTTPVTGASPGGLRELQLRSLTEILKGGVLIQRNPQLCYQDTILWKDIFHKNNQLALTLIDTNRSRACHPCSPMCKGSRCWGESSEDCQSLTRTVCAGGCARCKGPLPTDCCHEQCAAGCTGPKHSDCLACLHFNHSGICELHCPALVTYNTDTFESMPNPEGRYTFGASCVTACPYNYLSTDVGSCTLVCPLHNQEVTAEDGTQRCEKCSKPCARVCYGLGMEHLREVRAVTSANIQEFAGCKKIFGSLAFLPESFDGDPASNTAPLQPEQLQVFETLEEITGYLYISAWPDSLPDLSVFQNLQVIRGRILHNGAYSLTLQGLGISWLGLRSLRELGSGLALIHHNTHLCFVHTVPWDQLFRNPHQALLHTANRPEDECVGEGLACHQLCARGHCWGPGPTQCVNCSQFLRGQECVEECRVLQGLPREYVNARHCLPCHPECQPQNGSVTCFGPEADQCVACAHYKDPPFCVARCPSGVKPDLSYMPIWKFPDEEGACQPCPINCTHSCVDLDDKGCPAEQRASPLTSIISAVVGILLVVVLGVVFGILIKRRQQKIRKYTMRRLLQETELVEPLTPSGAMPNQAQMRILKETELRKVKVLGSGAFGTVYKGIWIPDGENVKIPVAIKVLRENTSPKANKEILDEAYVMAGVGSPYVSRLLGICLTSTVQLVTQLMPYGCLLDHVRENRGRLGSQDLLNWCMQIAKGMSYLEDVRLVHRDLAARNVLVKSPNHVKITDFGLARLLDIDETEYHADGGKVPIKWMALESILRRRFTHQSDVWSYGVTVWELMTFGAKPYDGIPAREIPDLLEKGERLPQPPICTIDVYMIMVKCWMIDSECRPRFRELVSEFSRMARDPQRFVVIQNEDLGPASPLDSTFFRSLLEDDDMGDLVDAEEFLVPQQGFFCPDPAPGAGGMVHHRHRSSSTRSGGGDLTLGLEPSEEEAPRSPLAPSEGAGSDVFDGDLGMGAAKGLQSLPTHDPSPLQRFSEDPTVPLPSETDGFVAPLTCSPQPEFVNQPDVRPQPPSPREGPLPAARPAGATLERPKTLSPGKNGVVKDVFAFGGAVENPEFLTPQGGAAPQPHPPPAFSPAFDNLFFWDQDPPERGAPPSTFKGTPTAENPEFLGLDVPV
Source text: Ba/F3 cells are normally dependent on IL-3 signaling for their proliferation and survival, but can be made dependent on introduced oncogenic signals. We sequentially selected transduced Ba/F3 cells for populations stably expressing HER3 and then HER2. To ensure that all of the proliferative signal could be attributed to HER2/HER3 heterodimers, rather than HER2 homodimers, the 9 C-terminal tyrosines in HER2 were mutated to phenylalanine (HER2YF). We then withdrew IL-3 and supplemented the media with NRG to select for NRG dependent HER2YF/HER3wt cells (2YF/3wt).
For the 2YF/3wt cells, the parental cells were first transduced with HER3 according to the protocol above and were then spun down at 500×g for 5 min and re-suspended in media supplemented with 10 ng/mL IL-3 and 3 μg/mL puromycin (Invitrogen). Cells were maintained in these conditions for seven days, passaging as required. After seven days the cells were spun down, washed with fresh media, and then used for a subsequent round of transduction according to the protocol above with HER2YF virus. […] The cells were maintained in these conditions for seven days, passaging as required. After seven days the cells were spun down, washed with fresh media, and then suspended in media supplemented with 10 ng/mL of NRG. Cells were maintained in these conditions for seven days to select for a NRG dependent population of 2YF/3wt Ba/F3 cells that were then maintained as described above. The same protocol was used for the 2YF-L755S/3wt, 2YF-YVMA/3wt, and 2YF-VC/3wt cell lines using the indicated constructs.
Proliferation Assays. […] The following day media was changed to fresh media that contained either DMSO or the indicated concentration of drug plus NRG (50 ng/mL final concentration) as indicated. […] For all normalized assays, proliferation was normalized to the DMSO control condition. All graphs were plotted in GraphPad Prism 6 and fit with a non-linear regression of the log(inhibitor) vs response with a variable slope where shown. All graphs are averages (+/−standard deviation) of biological triplicates each performed in technical triplicate unless otherwise noted. If only one biological replicate was performed standard deviations were derived from the technical replicates.

Row | SMILES | IC50 (HER2+/2VE Ba/F3 line; Mus musculus, BaF3) | GI50 [2] | IC50 (HER2+/2VE Ba/F3 line) | IC50 ([1]; Mus musculus, BaF3) | IC50 [1]
1 | COc1ccc(-c2csc(C)c2)cc1Nc1ncnc2[nH]cc(-c3cn[nH]c3)c12 [Cmpd 172] | 422 nM | 910 nM | – | – | –
2 | COc1ccc(-c2ccccc2)cc1Nc1nc(N)nc2[nH]nc(-c3ccco3)c12 [Cmpd 65] | 11 nM | 4 nM | – | 8.4 nM | –
3 | CCOc1ccc(-c2ccccc2)cc1Nc1ncnc2[nH]cc(-c3cc[nH]n3)c12 [Cmpd 176] | – | 29 nM | 217 nM | – | 2290 nM
4 | CCOc1ccc(-c2ccccc2)cc1Nc1ncnc2[nH]cc(-c3cn[nH]c3)c12 [Cmpd 171] | 183 nM | 45 nM | – | – | –
5 | COc1ccc(-c2csc(C)n2)cc1Nc1ncnc2[nH]nc(-c3ccco3)c12 [Cmpd 66A] | 2340 nM | 1560 nM | – | – | –
6 | COc1ccc(-c2ccoc2)cc1Nc1ncnc2[nH]nc(-c3ccnn3C)c12 [Cmpd 152] | 2570 nM | 822 nM | – | > 10000 nM | –
7 | CCOc1ccc(-c2ccoc2)cc1Nc1ncnc2[nH]nc(-c3cn[nH]c3)c12 [Cmpd 153] | 285 nM | 17.5 nM | – | > 3330 nM | –
8 | COc1ccc(-c2ccnn2C)cc1Nc1ncnc2[nH]nc(-c3ccco3)c12 [Cmpd 66C] | 642 nM | 362 nM | – | – | –
9 | COc1ccc(-c2ccc(C#N)s2)cc1Nc1ncnc2[nH]cc(-c3cn[nH]c3)c12 [Cmpd 170] | 673 nM | 687 nM | – | – | –
10 | CCOc1ccc(-c2ccccc2)cc1Nc1ncnc2[nH]nc(-c3cn[nH]c3)c12 [Cmpd 147] | 359 nM | 58.7 nM | – | 1360 nM | –
11 | COc1ccc(-c2sccc2C)cc1Nc1ncnc2[nH]nc(-c3ccco3)c12 [Cmpd 66B] | 210 nM | 31 nM | – | – | –

More lines, main results first:

Row | IC50 (HER2+/2VE Ba/F3 line; Mus musculus, BaF3) | GI50 [2] | IC50 (HER2+/2VE Ba/F3 line) | SMILES | IC50 ([1]; Mus musculus, BaF3) | IC50 [1]
12 | > 10000 nM | > 10000 nM | – | COc1ccc(-c2ccnn2C)cc1Nc1ncnc2[nH]nc(-c3cn[nH]c3)c12 [Cmpd 154A] | > 10000 nM | –
13 | > 10000 nM | > 10000 nM | – | COc1ccc(-c2cnn(C)c2)cc1Nc1ncnc2[nH]nc(-c3cn[nH]c3)c12 [Cmpd 154C] | > 10000 nM | –
14 | 228 nM | 32 nM | – | COc1ccc(-c2ccoc2)cc1Nc1ncnc2[nH]cc(-c3ccc4nc[nH]c4c3)c12 [Cmpd 173B] | – | –
15 | 1080 nM | 171 nM | – | COc1ccc(-c2ccoc2)cc1Nc1ncnc2[nH]nc(-c3ccccc3)c12 [Cmpd 144A] | > 3330 nM | –
16 | 295 nM | 39.3 nM | – | COc1ccc(-c2sccc2C)cc1Nc1ncnc2[nH]nc(-c3cn[nH]c3)c12 [Cmpd 154B] | > 10000 nM | –
17 | 308 nM | 21.4 nM | – | COc1ccc(-c2ccoc2)cc1Nc1ncnc2[nH]nc(-c3cnn(C)c3)c12 [Cmpd 144B] | > 3330 nM | –
